From PubChem BioAssay (NCI) come the findings set out here.

Test in all cases: growth of human tumour cells (NCI), 48 h
In assay [1] the test system is 786-0 renal.
In assay [2] the test system is EKVX NSCLC.
The subject of assay [3] is HCC-2998 colon.
In assay [4] the test system is IGROV1 ovarian.
Assay [5] deals with MDA-MB-231 breast.
In assay [6] the test system is MDA-MB-435.
The test system of assay [7] is NCI-H460 lung.
Assay [8] has as its system SF-539 CNS.
Assay [9] has as its system SN12C renal.
Assay [10] deals with SW-620 colon.

Values joined by “and” are separate entries in the source; they are usually repeats but may differ in a detail not shown here. Identical values can stand only once.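 Where inhibition never reached the appropriate level, the endpoint shown equals the highest concentration tested. Otherwise, values were interpolated linearly from a five-concentration, 48-hour dose response in 96-well plates. Here, GI50 denotes the concentration required for 50% inhibition of growth. TGI is the concentration that stops growth completely.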

With `CSc1nc(SC)c2c(CN=[N+]=[N-])c(Br)n(Cc3ccccc3)c2n1`, the TGI in [1], in assay [2], in assay [3], in assay [4], in assay [5] and in assay [6] was > 100 µM throughout. For the same compound, the TGI in assay [7], in assay [8], in [9] and in assay [10] was > 100 µM in each case.
On to `Clc1ccccc1C(c1ccccc1)(c1ccccc1)n1ccnc1`, for which the GI50 in assay [1] was 3.05 µM; in [2], 2.41 µM; in assay [3] it was 3.3 µM; in assay [4] it was 3.35 µM; in [5], 2.13 µM; in [6] it was 2.4 µM. Besides, the GI50 was 2.9 µM in [7], 3.22 µM in assay [8], 2.63 µM in assay [9] and 3.28 µM in assay [10]. Besides, the TGI was 10.6 µM and 43 µM in [1]; 13.7 µM and 23.7 µM in [2]; 12.7 µM and 31 µM in assay [3]; 18.7 µM and 22.9 µM in assay [4]; 6.72 µM and 38.6 µM in assay [5]; 10.1 µM and 47.4 µM in assay [6]. Further, the TGI in [7] was 9.53 µM and 29.8 µM; in [8] it was 11.1 µM; in [9], 13.3 µM; in assay [10], 13.3 µM and 40.1 µM.
On to `COc1ccc(-c2cc(-c3cc(Cl)ccc3Cl)nc3[nH]c(-c4cc(F)c(Cl)cc4Cl)cc(=O)c23)cc1`, for which the GI50 in assay [1] is 20.4 µM; in [2] it was 45 µM; in assay [3] it was 15.1 µM; in [4], 16.5 µM; in [5] it was 20.7 µM; in assay [6] it was 6.4 µM. Also, the GI50 in assay [7] is 87.3 µM; in [8], 18.9 µM; in assay [9], 24.5 µM; in assay [10] it was 20 µM. For the same compound, the TGI was 52 µM in assay [1]; > 100 µM in assay [2]; 32.3 µM in assay [3]; > 100 µM in assay [4]; 83.8 µM in assay [5]; > 100 µM in [6]. Also, the TGI is > 100 µM in assay [7], 55 µM in [8], 76.8 µM in assay [9] and > 100 µM in assay [10].
For `C=C1CCC2C(/C=C(\C)CCC1O)OC(=O)C2C` (configuration not stated), the GI50 in [1], in [2], in [3], in [4], in assay [5] and in assay [6] was > 100 µM throughout. The GI50 in assay [7], in [8], in assay [9] and in [10] was > 100 µM throughout. Further, the TGI in assay [1], in [2], in assay [3], in assay [4], in assay [5] and in assay [6] was > 100 µM each time. For the same compound, the TGI in assay [7], in assay [8], in [9] and in assay [10] was > 100 µM each time.
As for `CC(C)(C)c1cc(O)c(O)c(C(C)(C)C)c1`, the GI50 in assay [1] was 4.6 µM; in assay [2], 3.76 µM; in assay [3] it was 4.44 µM; in assay [4], 2.56 µM; in assay [5] it was 8.55 µM; in [6], 3.3 µM. Further, the GI50 in assay [7] is 3 µM; in [8], 3.47 µM; in assay [9], 4.82 µM; in assay [10] it was 1.8 µM. Moreover, the TGI in [1] stood at 16.2 µM; in assay [2] it was 17.5 µM; in assay [3], 16.6 µM; in [4], 5.27 µM; in [5], 23.2 µM; in [6], 14.1 µM. Moreover, the TGI in [7] stood at 10 µM; in assay [8], 11 µM; in [9], 21.3 µM; in assay [10] it was 3.23 µM.
Regarding `O=c1cc(-c2cccc(F)c2)[nH]c2cc3c(cc12)OCO3`, the GI50 in [1] is 0.346 µM; in assay [3] it was 0.152 µM; in assay [7], 0.257 µM; in [8], 0.133 µM; in assay [9], 0.411 µM. The TGI in assay [1] is 75 µM and 17.7 µM; in assay [2], > 100 µM; in assay [3], 0.357 µM and 0.538 µM; in assay [4] it was > 57 µM; in [5], 1.03 µM; in [6], 0.0211 µM. Also, the TGI in assay [7] was 4.31 µM and 22.7 µM; in assay [8], 0.301 µM and 0.247 µM; in [9], 75 µM and 23.3 µM; in [10], > 100 µM.
For the compound `Cc1nn(-c2ccc(S(=O)(=O)[O-])cc2)c([O-])c1N=[N+](C)c1ccc(-c2ccc(N=Nc3ccc4c(S(=O)(=O)[O-])cc(S(=O)(=O)[O-])c(N)c4c3[O-])c([O-])c2)cc1[O-].[Cu+2].[Cu+2].[Na+]`, the GI50 in assay [1], in assay [2], in [3], in [4], in assay [5] and in assay [6] was > 100 µM each time. The GI50 in [7], in assay [8], in assay [9] and in [10] was > 100 µM in each case. The TGI in [1], in [2], in [3], in assay [4], in assay [5] and in assay [6] was > 100 µM throughout. Also, the TGI in [7], in assay [8], in [9] and in [10] was > 100 µM in each case.
`COc1cccc(/C=C/C(=O)c2cc3c(N)c(C(=O)Nc4ccccc4C)sc3nc2C)c1`: the GI50 was 0.912 µM in assay [1]; 1.84 µM in assay [2]; 0.955 µM in assay [3]; 1.03 µM in [4]; 1.46 µM in assay [5]; 1.07 µM in [6]. For the same compound, the GI50 in assay [7] is 1.1 µM; in assay [8], 1.13 µM; in assay [9], 0.953 µM; in [10], 1.01 µM. The TGI was 1.93 µM in assay [1]; 10.8 µM in [2]; 1.87 µM in [3]; 2.44 µM in assay [4]; 4.08 µM in [5]; 2.77 µM in [6]. In addition, the TGI came out at 2.53 µM in assay [7], 2.91 µM in assay [8], 2.13 µM in assay [9] and 2.32 µM in assay [10].
As for `COc1ccc(NC(=O)Nc2n[nH]c3ccccc23)cc1`, the GI50 in [1], in assay [2], in [3], in [4], in assay [5] and in [6] was > 100 µM throughout. Besides, the GI50 in [7], in assay [8], in assay [9] and in assay [10] was > 100 µM each time. Moreover, the TGI in [1], in assay [2], in assay [3], in [4], in [5] and in assay [6] was > 100 µM in each case. In addition, the TGI in assay [7], in assay [8], in [9] and in assay [10] was > 100 µM throughout.
For `CC(=O)Nc1cccc(-n2c(=O)n(C3CC3)c(=O)c3c(Nc4ccc(I)cc4F)n(C)c(=O)c(C)c32)c1`, the GI50 in assay [1] is 4.02 µM and > 7.71 µM; in assay [2], 0.0135 µM and 0.0443 µM; in assay [3] it was < 0.01 µM and 0.0024 µM; in [4], 0.034 µM and 0.0221 µM; in assay [5], 0.0345 µM; in assay [6] it was < 0.01 µM and 0.00313 µM. The GI50 was 3.19 µM and > 4.26 µM in assay [7]; 1.15 µM and > 3.69 µM in assay [8]; 2.39 µM and > 2.41 µM in assay [9]; < 0.01 µM and 0.00622 µM in [10]. For the same compound, the TGI in assay [1] was > 57.7 µM; in assay [2], > 71 µM; in assay [3], 15.7 µM and > 10 µM; in assay [4], > 81.6 µM; in [5], 14 µM and > 10 µM; in assay [6] it was 25 µM and > 10 µM. In addition, the TGI in [7] is > 93.6 µM; in assay [8], 22.1 µM and > 10 µM; in assay [9], > 100 µM; in assay [10] it was > 48.8 µM.
Regarding `COC(=O)C(=O)CC(=O)CCn1ncc(Cl)c(Cl)c1=O`, the TGI amounted to 43.6 µM in [1]; 33.8 µM in assay [2]; 13.1 µM in assay [3]; 33.4 µM in assay [4]; 20.7 µM in [5]; 12.8 µM in assay [6]. Further, the TGI was 32.3 µM in assay [7], 35.2 µM in assay [8], 29.9 µM in assay [9] and 13.3 µM in assay [10]. For the same compound, the GI50 was 7.88 µM in assay [5] and 3.37 µM in assay [6].
Take `Fc1cccc(COc2ccc(Nc3ncncc3C#Cc3ccccc3)cc2Cl)c1`: the GI50 in assay [1] is > 25 µM; in [2], 8.26 µM; in assay [3], > 25 µM; in assay [4], > 24 µM; in [5], > 25 µM; in [6], > 25 µM. Further, the GI50 in [7], in assay [8], in [9] and in assay [10] was > 25 µM in each case. The TGI in assay [1], in assay [2], in assay [3], in assay [4], in assay [5] and in assay [6] was > 25 µM throughout. In addition, the TGI in assay [7], in [8], in assay [9] and in assay [10] was > 25 µM each time.
